System: 883617-216-R-J1-PDC complex spheroids, growth, % test/control
Experiment: Anticancer human tumor 883617-216-R-J1-PDC patient-derived bladder carcinoma cell line growth inhibition [AhR]
Conditions: for IC50: curve of first compound; for viability, T/C: stronger effect = lower value
In short: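 Agents were dosed in half-log steps down from roughly clinical Cmax, or from 10 microM where Cmax was unknown, alone and with AhR antagonists. Read-out: percent test/control growth of tumor spheroids containing HUVEC and MSC stromal cells.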

[1] = second compound 0.1 µM, first compound 0.0316 µM
[2] = second compound 0.1 µM, first compound 0.1 µM
[3] = second compound 0.1 µM, first compound 0.316 µM
[4] = second compound 0.1 µM, first compound 1 µM
[5] = second compound 0.1 µM, first compound 3.16 µM
[6] = second compound 0.1 µM, first compound 10 µM
[7] = second compound 0.316 µM, first compound 0.0316 µM
[8] = second compound 0.316 µM, first compound 0.1 µM
[9] = second compound 0.316 µM, first compound 0.316 µM
[10] = second compound 0.316 µM, first compound 1 µM
[11] = second compound 0.316 µM, first compound 3.16 µM
[12] = second compound 0.316 µM, first compound 10 µM
[13] = second compound 1 µM, first compound 0.0316 µM
[14] = second compound 1 µM, first compound 0.1 µM
[15] = second compound 1 µM, first compound 0.316 µM
[16] = second compound 1 µM, first compound 1 µM
[17] = second compound 1 µM, first compound 3.16 µM
[18] = second compound 1 µM, first compound 10 µM
[19] = second compound 3.16 µM, first compound 0.0316 µM
[20] = second compound 3.16 µM, first compound 0.1 µM
[21] = second compound 3.16 µM, first compound 0.316 µM
[22] = second compound 3.16 µM, first compound 1 µM
[23] = second compound 3.16 µM, first compound 3.16 µM
[24] = second compound 3.16 µM, first compound 10 µM
[25] = second compound 10 µM, first compound 0.0316 µM
[26] = second compound 10 µM, first compound 0.1 µM
[27] = second compound 10 µM, first compound 0.316 µM
[28] = second compound 10 µM, first compound 1 µM
[29] = second compound 10 µM, first compound 3.16 µM
[30] = second compound 10 µM, first compound 10 µM
[31] = second compound 0.1 µM, first compound 0.00316 µM
[32] = second compound 0.1 µM, first compound 0.01 µM
[33] = second compound 0.316 µM, first compound 0.00316 µM
[34] = second compound 0.316 µM, first compound 0.01 µM
[35] = second compound 1 µM, first compound 0.00316 µM
[36] = second compound 1 µM, first compound 0.01 µM
[37] = second compound 3.16 µM, first compound 0.00316 µM
[38] = second compound 3.16 µM, first compound 0.01 µM
[39] = second compound 10 µM, first compound 0.00316 µM
[40] = second compound 10 µM, first compound 0.01 µM
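Further: exposure lasted 7 days after dosing on day 3 of spheroid growth.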

Row | Compound | IC50 (second compound 0.1 µM) | IC50 (second compound 0.316 µM) | IC50 (second compound 1 µM) | IC50 (second compound 3.16 µM) | IC50 (second compound 10 µM) | viability, T/C [1] | viability, T/C [2] | viability, T/C [3] | viability, T/C [4] | viability, T/C [7] | viability, T/C [8] | viability, T/C [9] | viability, T/C [10] | viability, T/C [13] | viability, T/C [14] | viability, T/C [15] | viability, T/C [16] | viability, T/C [19] | viability, T/C [20] | viability, T/C [21] | further results
1 | CC(C)c1c(-c2ccccc2)nc2c(C#N)c[nH]n2c1=O + Cc1ccccc1N=Nc1ccc(NC(=O)c2ccnn2C)c(C)c1 | > 10000 nM | > 10000 nM | > 10000 nM | > 10000 nM | > 10000 nM | 91.7% | 101% | 85.9% | 103% | 99.1% | 94.6% | 86.6% | 93.9% | 84% | 85% | 87.7% | 84.8% | 87.7% | 89.6% | 72.8% | viability, T/C [5]: 101%; viability, T/C [6]: 93.7%; viability, T/C [11]: 86%; viability, T/C [12]: 91.1%; viability, T/C [17]: 91%; viability, T/C [18]: 91.6%; viability, T/C [22]: 84.5%; viability, T/C [23]: 82.9%; viability, T/C [24]: 77.7%; viability, T/C [25]: 75.4%; viability, T/C [26]: 78.3%; viability, T/C [27]: 82.1%; viability, T/C [28]: 79.3%; viability, T/C [29]: 75.9%; viability, T/C [30]: 82.9%
2 | CC1COCCN1c1cc(-c2ccnn2C)c2ccnc(-c3ccn[nH]3)c2n1 (stereo not given) + Cc1ccccc1N=Nc1ccc(NC(=O)c2ccnn2C)c(C)c1 | 906 nM | > 1000 nM | 813 nM | 491 nM | 624 nM | 76.7% | 74.6% | 58.6% | 49.1% | 85.9% | 69.6% | 55.7% | 51.4% | 70.3% | 67.7% | 56% | 48.4% | 71.2% | 71.2% | 49.8% | viability, T/C [31]: 98%; viability, T/C [32]: 96.6%; viability, T/C [33]: 97.7%; viability, T/C [34]: 83.3%; viability, T/C [35]: 84.4%; viability, T/C [36]: 88.8%; viability, T/C [37]: 86.5%; viability, T/C [38]: 81.2%; viability, T/C [22]: 44.3%; viability, T/C [39]: 77.9%; viability, T/C [40]: 79.7%; viability, T/C [25]: 66.6%; viability, T/C [26]: 61.7%; viability, T/C [27]: 52.4%; viability, T/C [28]: 48.1%
3 | COc1ccc([C@@H](O)c2cc(-c3ncnc4cc(N5CCOCC5)ccc34)c(F)cc2Cl)nn1 + Cc1ccccc1N=Nc1ccc(NC(=O)c2ccnn2C)c(C)c1 | 3450 nM | 2300 nM | 2420 nM | 1780 nM | 1690 nM | 97.8% | 91.4% | 81.3% | 67.8% | 83.7% | 84.9% | 78.3% | 61.4% | 91.1% | 80.7% | 72.8% | 60.2% | 76.8% | 80% | 76.1% | viability, T/C [5]: 51.4%; viability, T/C [6]: 33.8%; viability, T/C [11]: 46.4%; viability, T/C [12]: 33.9%; viability, T/C [17]: 47.2%; viability, T/C [18]: 32.6%; viability, T/C [22]: 58.2%; viability, T/C [23]: 41.9%; viability, T/C [24]: 32.9%; viability, T/C [25]: 75.4%; viability, T/C [26]: 74.2%; viability, T/C [27]: 64.5%; viability, T/C [28]: 57.3%; viability, T/C [29]: 42.3%; viability, T/C [30]: 34.2%
4 | COc1cccc2c1C(=O)c1c(O)c3c(c(O)c1C2=O)CC(O)(C(=O)CO)CC3OC1CC(N)C(O)C(C)O1 (stereo not given) + Cc1cncc(-c2nc(NCCc3c[nH]c4ccccc34)c3ncn(C(C)C)c3n2)c1 | 393 nM | 437 nM | 404 nM | 400 nM | < 31.6 nM | 74.5% | 66.3% | 57.9% | 18.8% | 65.3% | 62.6% | 64.4% | 14% | 81.8% | 74.5% | 62.1% | 5.5% | 77.1% | 75% | 62.7% | viability, T/C [5]: 0.11%; viability, T/C [6]: 0.16%; viability, T/C [11]: 0.05%; viability, T/C [12]: 0.15%; viability, T/C [17]: 0.05%; viability, T/C [18]: 1.21%; viability, T/C [22]: 0.89%; viability, T/C [23]: 0.17%; viability, T/C [24]: 1.17%; viability, T/C [25]: 41.7%; viability, T/C [26]: 37.4%; viability, T/C [27]: 34.3%; viability, T/C [28]: 0.82%; viability, T/C [29]: 0.12%; viability, T/C [30]: 0.16%
5 | Nc1ncn(C2CC(O)C(CO)O2)c(=O)n1 (stereo not given) + Cc1cncc(-c2nc(NCCc3c[nH]c4ccccc34)c3ncn(C(C)C)c3n2)c1 | > 1000 nM | > 1000 nM | > 1000 nM | > 1000 nM | < 3.16 nM | 76.2% | 73.1% | 77.9% | 67.7% | 84.5% | 74.1% | 71.3% | 79.6% | 84.8% | 77.2% | 86.1% | 78.7% | 104% | 99.8% | 103% | viability, T/C [31]: 81.2%; viability, T/C [32]: 76.9%; viability, T/C [33]: 92.2%; viability, T/C [34]: 89.5%; viability, T/C [35]: 92.1%; viability, T/C [36]: 89.8%; viability, T/C [37]: 97.2%; viability, T/C [38]: 87.5%; viability, T/C [22]: 84.2%; viability, T/C [39]: 43.5%; viability, T/C [40]: 42.6%; viability, T/C [25]: 45.2%; viability, T/C [26]: 47.7%; viability, T/C [27]: 51.2%; viability, T/C [28]: 55%

— PubChem BioAssay AID1919004 (Molecular Pharmacology Branch, DTP, NCI, 2023)
